Reference: paper PMC5218480 (PLoS ONE, 2017)

System: MV-4-11 cells
Experiment: Gene expression microarray analysis (Affymetrix PrimeView) and GSEA
Format: cell-based, human
Parameters: RFU PODN (11730768_x_at) / Fold change /veh PODN (11730768_x_at) / RFU LINC00158 (11744669_a_at) / Fold change /veh LINC00158 (11744669_a_at) / RFU DUSP10 (11751237_a_at) / Fold change /veh DUSP10 (11751237_a_at) / RFU ID3 (11757404_x_at) / Fold change /veh ID3 (11757404_x_at) / RFU PLEKHG5 (11737974_s_at) / Fold change /veh PLEKHG5 (11737974_s_at) / RFU LRRC4B (11730491_at) / Fold change /veh LRRC4B (11730491_at) / RFU GIMAP4 (11747438_a_at) / Fold change /veh GIMAP4 (11747438_a_at) / RFU KRT8 (11758183_x_at) / Fold change /veh KRT8 (11758183_x_at) / RFU CNN1 (11734310_a_at) / Fold change /veh CNN1 (11734310_a_at) / RFU VPS37D (11726825_at) / Fold change /veh VPS37D (11726825_at) / RFU C10orf10 (11716522_x_at) / Fold change /veh C10orf10 (11716522_x_at) / RFU KIR2DL2 /// KIR2DL4 /// KIR2DL5A /// KIR2DL5B /// KIR2DS1 /// KIR2DS2 /// KIR2DS3 /// KIR2DS4 /// KIR3DL3 /// KIR3DL3 /// KIR3DS1 (11738374_at) / Fold change /veh KIR2DL2 /// KIR2DL4 /// KIR2DL5A /// KIR2DL5B /// KIR2DS1 /// KIR2DS2 /// KIR2DS3 /// KIR2DS4 /// KIR3DL3 /// KIR3DL3 /// KIR3DS1 (11738374_at) / RFU C1QL1 (11718748_at) / Fold change /veh C1QL1 (11718748_at) / RFU TMPRSS4 (11747572_a_at) / Fold change /veh TMPRSS4 (11747572_a_at) / RFU HAMP (11756126_x_at) / Fold change /veh HAMP (11756126_x_at) / RFU RNFT2 (11725882_a_at) / Fold change /veh RNFT2 (11725882_a_at) / RFU NR4A2 (11747474_a_at) / Fold change /veh NR4A2 (11747474_a_at) / RFU ABCC12 (11746883_a_at) / Fold change /veh ABCC12 (11746883_a_at) / RFU TMEM136 (11760407_x_at) / Fold change /veh TMEM136 (11760407_x_at) / RFU CLDN22 /// WWC2 (11732394_at) / Fold change /veh CLDN22 /// WWC2 (11732394_at) / RFU HLA-DPB1 (11760878_x_at) / Fold change /veh HLA-DPB1 (11760878_x_at) / RFU SPINT1 (11716480_a_at) / Fold change /veh SPINT1 (11716480_a_at) / RFU GAP43 (11754022_s_at) / Fold change /veh GAP43 (11754022_s_at) / RFU A4GNT (11735810_at) / Fold change /veh A4GNT (11735810_at) / RFU PRB3 (11715151_x_at) / Fold change /veh PRB3 (11715151_x_at) / RFU TUBB4B (11761932_at) / Fold change /veh TUBB4B (11761932_at) / RFU CAPN14 (11732068_a_at) / Fold change /veh CAPN14 (11732068_a_at) / RFU TMCC2 (11721928_a_at) / Fold change /veh TMCC2 (11721928_a_at) / RFU IRGQ (11745062_a_at) / Fold change /veh IRGQ (11745062_a_at) / RFU FAM174B (11720279_a_at) / Fold change /veh FAM174B (11720279_a_at) / RFU TMPRSS4 (11748680_a_at) / Fold change /veh TMPRSS4 (11748680_a_at) / RFU FAM212B (11763350_a_at) / Fold change /veh FAM212B (11763350_a_at) / RFU PLEKHG5 (11743358_a_at) / Fold change /veh PLEKHG5 (11743358_a_at) / RFU ZSCAN30 (11745921_a_at) / Fold change /veh ZSCAN30 (11745921_a_at) / RFU CMKLR1 (11741424_a_at) / Fold change /veh CMKLR1 (11741424_a_at) / RFU LOC101060620 /// MAPK8IP1 (11723275_at) / Fold change /veh LOC101060620 /// MAPK8IP1 (11723275_at) / RFU SPTSSB (11747773_x_at) / Fold change /veh SPTSSB (11747773_x_at) / RFU PRSS12 (11739890_at) / Fold change /veh PRSS12 (11739890_at) / RFU BIN1 (11741810_x_at) / Fold change /veh BIN1 (11741810_x_at) / RFU WNT11 (11732464_a_at) / Fold change /veh WNT11 (11732464_a_at) / RFU C10orf10 (11716521_a_at) / Fold change /veh C10orf10 (11716521_a_at) / RFU C5orf56 (11738089_at) / Fold change /veh C5orf56 (11738089_at) / RFU CYB561 (11721691_x_at) / Fold change /veh CYB561 (11721691_x_at) / RFU ANKRD19P (11752326_a_at) / Fold change /veh ANKRD19P (11752326_a_at) / RFU OR2T12 /// OR2T33 /// OR2T8 (11738714_s_at) / Fold change /veh OR2T12 /// OR2T33 /// OR2T8 (11738714_s_at) / RFU VCAN (11748164_a_at) / Fold change /veh VCAN (11748164_a_at) / RFU JSRP1 (11732532_at) / Fold change /veh JSRP1 (11732532_at) / RFU KRTAP10-11 (11738290_x_at) / Fold change /veh KRTAP10-11 (11738290_x_at) / RFU MYO3A (11730013_a_at) / Fold change /veh MYO3A (11730013_a_at) / RFU EBF3 (11725865_a_at) / Fold change /veh EBF3 (11725865_a_at) / RFU CAMK2N1 (11719241_x_at) / Fold change /veh CAMK2N1 (11719241_x_at) / RFU C5orf56 (11738088_a_at) / Fold change /veh C5orf56 (11738088_a_at) / RFU OLFML3 (11715873_a_at) / Fold change /veh OLFML3 (11715873_a_at) / RFU LOC100653217 /// NTM (11731650_a_at) / Fold change /veh LOC100653217 /// NTM (11731650_a_at) / RFU MAPK11 (11762145_a_at) / Fold change /veh MAPK11 (11762145_a_at) / RFU FIZ1 (11724087_x_at) / Fold change /veh FIZ1 (11724087_x_at) / RFU OASL (11726364_x_at) / Fold change /veh OASL (11726364_x_at) / RFU SOX15 (11748057_x_at) / Fold change /veh SOX15 (11748057_x_at) / RFU CD79A (11719716_a_at) / Fold change /veh CD79A (11719716_a_at) / RFU HIST1H1D (11736915_at) / Fold change /veh HIST1H1D (11736915_at) / RFU CASKIN2 (11723855_a_at) / Fold change /veh CASKIN2 (11723855_a_at) / RFU LOC730098 (11760151_x_at) / Fold change /veh LOC730098 (11760151_x_at) / RFU OR4N2 (11742367_at) / Fold change /veh OR4N2 (11742367_at) / RFU PRRT2 (11749266_a_at) / Fold change /veh PRRT2 (11749266_a_at) / RFU SNX32 (11753110_a_at) / Fold change /veh SNX32 (11753110_a_at) / RFU CDHR5 (11726645_a_at) / Fold change /veh CDHR5 (11726645_a_at) / RFU RCAN1 (11760418_a_at) / Fold change /veh RCAN1 (11760418_a_at) / RFU FAM167A (11723789_a_at) / Fold change /veh FAM167A (11723789_a_at) / RFU FAM26E (11764081_at) / Fold change /veh FAM26E (11764081_at) / RFU ISYNA1 (11749810_s_at) / Fold change /veh ISYNA1 (11749810_s_at) / RFU ACY1 (11761880_at) / Fold change /veh ACY1 (11761880_at) / RFU 11764098_at / Fold change /veh 11764098_at / RFU SAMD14 (11745864_x_at) / Fold change /veh SAMD14 (11745864_x_at) / RFU NPB (11741838_a_at) / Fold change /veh NPB (11741838_a_at) / RFU TMPRSS6 (11731388_a_at) / Fold change /veh TMPRSS6 (11731388_a_at) / RFU KRTAP10-2 (11738614_at) / Fold change /veh KRTAP10-2 (11738614_at) / RFU ARHGAP8 /// PRR5-ARHGAP8 (11727945_x_at) / Fold change /veh ARHGAP8 /// PRR5-ARHGAP8 (11727945_x_at) / RFU KRTAP5-7 /// NADSYN1 (11734609_at) / Fold change /veh KRTAP5-7 /// NADSYN1 (11734609_at) / RFU RASL12 (11751679_a_at) / Fold change /veh RASL12 (11751679_a_at) / RFU CDKN2B (11736163_a_at) / Fold change /veh CDKN2B (11736163_a_at) / RFU PRF1 (11729649_at) / Fold change /veh PRF1 (11729649_at) / RFU, ZNF638 /// ZNF638-IT1 / Fold change vs veh, ZNF638 /// ZNF638-IT1 / RFU, PANK3 / Fold change vs veh, PANK3 / RFU, SH3YL1 / Fold change vs veh, SH3YL1 / RFU, ZEB2 / Fold change vs veh, ZEB2 / RFU, NRIP1 / Fold change vs veh, NRIP1 / RFU, PTTG1IP / Fold change vs veh, PTTG1IP / RFU, CAPN2 / Fold change vs veh, CAPN2 / RFU, MED14 / Fold change vs veh, MED14 / RFU, SNORA58 / Fold change vs veh, SNORA58 / RFU, C1orf63 / Fold change vs veh, C1orf63 / RFU, LRRFIP1 / Fold change vs veh, LRRFIP1 / RFU, NDUFAF7 / Fold change vs veh, NDUFAF7 / RFU, SLC12A2 / Fold change vs veh, SLC12A2 / RFU, IBTK / Fold change vs veh, IBTK / RFU, ESF1 / Fold change vs veh, ESF1 / Fold change vs veh, TMEM50B / RFU, TAOK1 / Fold change vs veh, TAOK1 / RFU, ACBD3 / Fold change vs veh, ACBD3 / RFU, TMA16 / Fold change vs veh, TMA16 / RFU, RWDD3 / Fold change vs veh, RWDD3 / RFU, BCAT1 / Fold change vs veh, BCAT1 / RFU, EDEM3 / Fold change vs veh, EDEM3 / RFU, TMEM33 / Fold change vs veh, TMEM33 / RFU, WDR75 / Fold change vs veh, WDR75 / RFU, AHCTF1 / Fold change vs veh, AHCTF1 / RFU, TFRC / Fold change vs veh, TFRC / RFU, ZDHHC17 / Fold change vs veh, ZDHHC17 / RFU, NOM1 / Fold change vs veh, NOM1 / RFU, ARL8B / Fold change vs veh, ARL8B / RFU, ZBTB11 / Fold change vs veh, ZBTB11 / RFU, TAMM41 / Fold change vs veh, TAMM41 / RFU, KIAA1704 /// LOC100996395 / Fold change vs veh, KIAA1704 /// LOC100996395 / RFU, ING1 / Fold change vs veh, ING1 / RFU, TRMT61B / Fold change vs veh, TRMT61B / RFU, FUBP3 / Fold change vs veh, FUBP3 / RFU, TP53 / Fold change vs veh, TP53 / RFU, TNKS2 / Fold change vs veh, TNKS2 / RFU, ZFP14 / Fold change vs veh, ZFP14 / RFU, ACTR2 / Fold change vs veh, ACTR2 / RFU, PPP3R1 / Fold change vs veh, PPP3R1 / RFU, PIK3R1 / Fold change vs veh, PIK3R1 / RFU, HNRNPA1 / Fold change vs veh, HNRNPA1 / RFU, RNF170 / Fold change vs veh, RNF170 / RFU, ZNF28 / Fold change vs veh, ZNF28 / RFU, RNGTT / Fold change vs veh, RNGTT / RFU, OGT / Fold change vs veh, OGT / RFU, BRD1 / Fold change vs veh, BRD1 / RFU, MARS / Fold change vs veh, MARS / RFU, ZNF655 / Fold change vs veh, ZNF655 / RFU, FAHD1 / Fold change vs veh, FAHD1 / RFU, BDP1 / Fold change vs veh, BDP1 / RFU, LRRCC1 / Fold change vs veh, LRRCC1 / RFU, ARID1A / Fold change vs veh, ARID1A / RFU, ZNF146 / Fold change vs veh, ZNF146 / RFU, ZNF330 / Fold change vs veh, ZNF330 / RFU, GPN3 / Fold change vs veh, GPN3 / RFU, C9orf123 / Fold change vs veh, C9orf123 / RFU, N4BP2L2 / Fold change vs veh, N4BP2L2 / RFU, ARFIP1 / Fold change vs veh, ARFIP1 / RFU, FAM179B / Fold change vs veh, FAM179B / RFU, BCL10 / Fold change vs veh, BCL10 / RFU, UHRF1BP1L / Fold change vs veh, UHRF1BP1L / RFU, BET1 / Fold change vs veh, BET1 / RFU, CNOT2 / Fold change vs veh, CNOT2 / RFU, ZNF268 / Fold change vs veh, ZNF268 / Fold change vs veh, ZNF507 / RFU, DGCR2 / Fold change vs veh, DGCR2 / RFU, WDSUB1 / Fold change vs veh, WDSUB1 / Fold change vs veh, HSP90B1 /// MIR3652 / RFU, ADSS / Fold change vs veh, ADSS / RFU, GK / Fold change vs veh, GK / RFU, ZNF148 / Fold change vs veh, ZNF148 / RFU, TAF9 / Fold change vs veh, TAF9 / RFU, SLC1A5 / Fold change vs veh, SLC1A5 / RFU, SLMO2 / Fold change vs veh, SLMO2 / RFU, ABCC4 / Fold change vs veh, ABCC4 / RFU, LOC101060439 /// RAP1B / Fold change vs veh, LOC101060439 /// RAP1B / RFU, RFX7 / Fold change vs veh, RFX7 / RFU, GTPBP10 / Fold change vs veh, GTPBP10 / RFU, CNEP1R1 / Fold change vs veh, CNEP1R1 / RFU, BIVM-ERCC5 /// ERCC5 / Fold change vs veh, BIVM-ERCC5 /// ERCC5 / RFU, ILF3 / Fold change vs veh, ILF3 / RFU 11762660_at / Fold change /veh 11762660_at / RFU VCAN (11757783_s_at) / Fold change /veh VCAN (11757783_s_at) / RFU DDX43 (11728927_at) / Fold change /veh DDX43 (11728927_at) / RFU KRT8 (11758188_x_at) / Fold change /veh KRT8 (11758188_x_at) / RFU NKD1 (11759106_at) / Fold change /veh NKD1 (11759106_at) / RFU SRD5A1 (11742802_a_at) / Fold change /veh SRD5A1 (11742802_a_at) / RFU TPSAB1 /// TPSB2 (11721975_s_at) / Fold change /veh TPSAB1 /// TPSB2 (11721975_s_at) / RFU GSTM3 (11746129_a_at) / Fold change /veh GSTM3 (11746129_a_at) / RFU IL23R (11737362_x_at) / Fold change /veh IL23R (11737362_x_at) / RFU TMEM51 (11727254_a_at) / Fold change /veh TMEM51 (11727254_a_at) / RFU PIWIL2 (11732686_x_at) / Fold change /veh PIWIL2 (11732686_x_at) / RFU ORM1 (11744905_x_at) / Fold change /veh ORM1 (11744905_x_at) / RFU CCDC152 (11743942_at) / Fold change /veh CCDC152 (11743942_at) / RFU ECM1 (11717891_a_at) / Fold change /veh ECM1 (11717891_a_at) / RFU IL23R (11748794_a_at) / Fold change /veh IL23R (11748794_a_at) / RFU TNFAIP8L3 (11732012_x_at) / Fold change /veh TNFAIP8L3 (11732012_x_at) / RFU MBOAT4 (11741988_at) / Fold change /veh MBOAT4 (11741988_at) / RFU 11764193_at / Fold change /veh 11764193_at / RFU TMEM53 (11763286_at) / Fold change /veh TMEM53 (11763286_at) / RFU MAGEB2 (11727129_at) / Fold change /veh MAGEB2 (11727129_at) / RFU TMEM200A (11744735_a_at) / Fold change /veh TMEM200A (11744735_a_at) / RFU CCDC152 (11751479_a_at) / Fold change /veh CCDC152 (11751479_a_at) / RFU FAM211A (11726209_a_at) / Fold change /veh FAM211A (11726209_a_at) / RFU RGS16 (11746705_a_at) / Fold change /veh RGS16 (11746705_a_at) / RFU VCAN (11755009_s_at) / Fold change /veh VCAN (11755009_s_at) / RFU RHOB (11743442_s_at) / Fold change /veh RHOB (11743442_s_at) / RFU RGS16 (11720943_a_at) / Fold change /veh RGS16 (11720943_a_at) / RFU RGS16 (11720944_at) / Fold change /veh RGS16 (11720944_at) / RFU, VPS4B / Fold change vs veh, VPS4B / RFU, CREB1 / Fold change vs veh, CREB1 / RFU, DNAJC13 / Fold change vs veh, DNAJC13 / RFU, GNAQ / Fold change vs veh, GNAQ / RFU, CDK5R1 / Fold change vs veh, CDK5R1 / RFU, ZRANB3 / Fold change vs veh, ZRANB3 / RFU, CUL4A / Fold change vs veh, CUL4A / RFU, CCNY / Fold change vs veh, CCNY / RFU, UFL1 / Fold change vs veh, UFL1 / RFU, COG3 / Fold change vs veh, COG3 / RFU, DIAPH2 / Fold change vs veh, DIAPH2 / RFU, SKA2 / Fold change vs veh, SKA2 / RFU, AFF3 / Fold change vs veh, AFF3 / RFU, LMF1 / Fold change vs veh, LMF1 / RFU, IPO11 / Fold change vs veh, IPO11 / RFU, DFFB / Fold change vs veh, DFFB / RFU, FOXP1 / Fold change vs veh, FOXP1 / RFU, CARD8 / Fold change vs veh, CARD8 / RFU, STRN3 / Fold change vs veh, STRN3 / RFU, ADK / Fold change vs veh, ADK / RFU, RASSF2 / Fold change vs veh, RASSF2 / RFU, WIPF1 / Fold change vs veh, WIPF1 / RFU, LARP1B / Fold change vs veh, LARP1B / RFU, RASA1 / Fold change vs veh, RASA1 / RFU, RB1 / Fold change vs veh, RB1 / RFU, PPFIA1 / Fold change vs veh, PPFIA1 / RFU, MAT2A / Fold change vs veh, MAT2A / RFU, CCT5 / Fold change vs veh, CCT5 / RFU, WDR92 / Fold change vs veh, WDR92 / RFU, CUX1 / Fold change vs veh, CUX1 / RFU, TTC7A / Fold change vs veh, TTC7A / RFU, TMEM135 / Fold change vs veh, TMEM135 / RFU, DEPTOR / Fold change vs veh, DEPTOR / RFU, CPM / Fold change vs veh, CPM / RFU, DNAJB6 / Fold change vs veh, DNAJB6 / RFU, CACNA2D3 / Fold change vs veh, CACNA2D3 / RFU, DTX4 / Fold change vs veh, DTX4 / RFU, TFCP2 / Fold change vs veh, TFCP2 / RFU, GMCL1 /// GMCL1P1 / Fold change vs veh, GMCL1 /// GMCL1P1 / RFU, AEBP2 / Fold change vs veh, AEBP2 / RFU, SNHG1 /// SNORD22 /// SNORD25 /// SNORD26 /// SNORD27 /// SNORD28 /// SNORD29 /// SNORD31 / Fold change vs veh, SNHG1 /// SNORD22 /// SNORD25 /// SNORD26 /// SNORD27 /// SNORD28 /// SNORD29 /// SNORD31 / Fold change (Aza/veh), C12orf56 (ProbeSet 11735607_a_at) / Fold change (ACY-1035/veh), C12orf56 (ProbeSet 11735607_a_at) / Fold change (Aza/veh), FGFR1OP (ProbeSet 11751329_s_at) / Fold change (ACY-1035/veh), FGFR1OP (ProbeSet 11751329_s_at) / Fold change (Aza/veh), VPS36 (ProbeSet 11739960_a_at) / Fold change (ACY-1035/veh), VPS36 (ProbeSet 11739960_a_at) / RFU SYPL1 (11715823_x_at) / Fold change /veh SYPL1 (11715823_x_at) / RFU IGFBP7 (11715501_s_at) / Fold change /veh IGFBP7 (11715501_s_at) / RFU REEP3 (11722064_at) / Fold change /veh REEP3 (11722064_at) / RFU IGLL1 (11728026_x_at) / Fold change /veh IGLL1 (11728026_x_at): dose or concentration left out as unconfirmed
Settings: ProbeSet 11716865_a_at; LIST B

Nc1ccc(-c2cccs2)cc1NC(=O)c1ccc2c(c1)cc(C1CC1)n2CCN1CCOCC1 [ACY-1035]
RFU, SLC1A5: 252.35 RFU
